Measurements: patent publication US10464920B2, “Vicinal primary diamines associated with metal and/or free radical chelation motifs, and active against carbonyl and oxidative stress, and use thereof” (UNIVERSITE AMIENS PICARDIE JULES VERNE, priority 2015, dated 2019)

Key:
[1] = Formation of adducts with MGO, kinetic study by HPLC; assay type: physicochemical; settings: compound 10 mM, MGO 20 mM, 37° C.; for disappearance of the free scavenger to the benefit of adducts with the MGO: after 15 min of incubation
Method: The compounds to be tested are incubated at 37° C. in the presence of MGO or of MDA. A kinetic study aiming to report on the formation of adducts with the MGO or MDA is then carried out via HPLC analysis.
The compounds to be tested (30 μmol) are dissolved in PBS (1.5 mL). An aqueous solution (qsp 1.25 mL) of MGO at 40% in water (250 μmol) is then prepared and in parallel, MDA bis-(diOEt)-acetal (250 μmol) is set to react with a solution of HCl 1N (2 eq) in water (qsp 1.25 mL) for 1 h at room temperature. An aqueous solution of NaOH 0.05N is also required to neutralise the reaction medium (5 mL).
The solution of the compound to be tested (625 μL—final concentration in the medium=10 mM) is then set to react with the solution of MGO or of MDA prepared extemporaneously (125 μL—final concentration in the medium=20 mM) in the presence of NaOH 0.05 N (0.5 mL).
The various mixtures are then incubated in the oven at 37° C. for 24 h.
A sampling of each mixture (100 μL) is taken at regular intervals of time (0.25; 0.5; 1; 5 and 24 h) and stored at −20° C. in order to stop the reaction. After dilution in a MeCN/H2O 98:2 mixture at room temperature, the HPLC analysis is carried out on a Shimadzu LCMS-2020 apparatus (UV chromatogram at 190 nm and mass spectrum in positive electrospray ionisation mode (ESI+)) after separation on the Waters Acquity column using a gradient of solvents H2O+HCOOH 0.1%/MeCN+HCOOH 0.1% (98/2 for 2 min, then 55/45 for 2 min and 45/55 for 3 min) with a flow rate of 0.3 mL/min at 40° C. and an injection of volume of 1 (“detection mode: scan, interface voltage: tuning file, DL voltage: 100 V, Q-array DC: 40 V, Q-array RF: 40 V”). A blank is first of all carried out using a solution containing the reaction medium without scavenger. Then, a free scavenger solution at 10 mM is used as a negative control and the carnosine as a reference of the literature. The proportion of adducts formed with the MGO or MDA (generally, tR=4.1 to 6.8 min) is then measured in relation to the quantity of remaining free scavenger (generally, tR=0.8 to 4.6 min) after measurement of the area under the curve of the corresponding peaks on the UV spectrum (measurements taken for a representative sample).

[2] = system: rat pheochromocytoma cells, treated as neuronal cells (PC12); experiment: Cytotoxicity, cellular viability (CCK-8/WST-8) on PC12; assay type: cell-based; settings: rat
Method: (§1) The cellular viability is evaluated by a colorimetric method based on the detection of the conversion of a salt of the tetrazolium (WST-8) by the metabolically active cells (CCK-8 kit, Sigma, Lyons, France) (Molecules, 2014, 19(8), 12048-12064; J. Pharmacol. Toxicol. Methods., 2007, 56(1), 58-62). Living cells have mitochondrial dehydrogenases that reduce the WST-8 (2-(2-methoxy-4-nitrophenyl)-3-(4-nitrophenyl)-5-(2,4-disulfophenyl)-2H-tetrazolium), monosodium salt) to formazan of an orange colour, which dissolves directly in the culture medium in the presence of 1-Methoxy PMS (1-methoxy-5-methylphenazinium methyl sulphate). After an incubation for 1 h at 37° C., the absorbance of the formazan is measured at 450 nm. The absorbance is directly proportional to the number of living cells.
(§2) Briefly, the cells are inoculated in 96-well plates at a rate of 5.10^3 cells per well in 100 μL of the suitable medium until subconfluence. The cells are then washed with D-PBS, then treated with various concentrations (10 μM, 100 μM) of the products to be tested in triplicates for 24 and 48 h. A positive control is carried out with 10% of DMSO. The CCK-8 (10 μL) solution is then added to each well for an incubation for 1 h at 37° C. The measurement of the absorbance is taken at 450 nm using a Perkin Elmer 2103 Envision® microplate reader.
(§3) The viability of the cells is expressed as a % of the control (untreated cells) by the mean±standard deviation of triplicates forming a representative experiment or of three independent experiments conducted in triplicate.

[3] = system: low-density lipoproteins (LDLs); experiment: Antiradical properties: inhibition of lipid peroxidation in AAPH-induced oxidation of LDLs; assay type: biochemical; settings: for anti-radical properties compared with Dap-Pip and vitamin E: concentrations from 1 to 10 μM; for antioxidant effect: concentrations ranging from 1 to 100; for antioxidant properties: low concentrations of about 1 μM
Method: The antiradical properties of the various compounds are determined by inhibition of the lipid peroxidation in the in vitro model of the oxidation of the low-density lipoproteins (LDLs) (Free Radic. Biol. Med., 1992, 13, 341-390). The lipid peroxidation is initiated by the attack by free radicals of a double bond of a polyunsaturated fatty acid present in the LDLs. […] Once initiated, the oxidation of the LDLs is a chain reaction of lipid peroxidation generated by the free radicals. The oxidation in vitro of the LDLs is induced at 37° C. by the adding of the water-soluble compound 2,2′-Azobis(2-methylpropionamidine)dihydrochloride (AAPH), which generates free radicals during the spontaneous thermal breakdown thereof
Briefly, the oxidation, carried out in a 96-well plate, is induced at 37° C. by adding 20 μL of a solution of AAPH at 2 mM in D-PBS at 160 μL of LDL (100 μg/mL) in the presence or absence of 20 μL of the various solutions of the compounds to be tested dissolved in D-PBS (0.1 to 100 μM in final concentrations). The LDLs alone without adding AAPH are used as a negative control. Each oxidation is carried out in double. During the oxidation, the formation of the conjugated dienes is followed by the measurement of the optical density at 234 nm every 10 minutes for 8 h at 37° C. using a temperature-controlled TECAN spectrophotometer. The vitamin E (α-tocopherol) which is a powerful antioxidant recognised in this in vitro model is used as a reference molecule (J. Nutr. Biochem., 2012, 23, 845-51).

[4] = system: murine endothelial brain cells (bEnd.3); experiment: Cytotoxicity, cellular viability (CCK-8/WST-8) on bEnd.3; assay type: cell-based; settings: mouse
Method: as §1, §2, §3

[5] = lower concentrations, 0.1 to 10 μM

Compound | disappearance of the free scavenger to the benefit of adducts with the MGO [1] | viability of the cells as a percentage of the untreated cells ([2]; 24 h, 10 μM) | viability of the cells as a percentage of the untreated cells ([2]; 24 h, 100 μM) | viability of the cells as a percentage of the untreated cells ([2]; 48 h, 10 μM) | viability of the cells as a percentage of the untreated cells ([2]; 48 h, 100 μM) | anti-radical properties compared with Dap-Pip and vitamin E [3] | antioxidant effect [3] | antioxidant properties [3] | viability of the cells as a percentage of the untreated cells ([4]; 24 h, 10 μM) | viability of the cells as a percentage of the untreated cells ([4]; 24 h, 100 μM) | viability of the cells as a percentage of the untreated cells ([4]; 48 h, 10 μM) | viability of the cells as a percentage of the untreated cells ([4]; 48 h, 100 μM) | adducts with the MGO with regards to the free scavenger ([1]; after 5 h of reaction, no HPLC separation, trend) | antioxidant / pro-oxidant behaviour ([3]; concentrations ranging from 25 to 100) | antioxidant / pro-oxidant behaviour [3, 5] | antioxidant / pro-oxidant behaviour ([3]; concentrations ranging from 50 to 100)
NCC(N)CCC(=O)NCCCn1cccc(O)c1=O (stereo not shown) [Compound 37c, 4,5-diamino-N-(3-(3-hydroxy-2-oxopyridin-1(2H)-yl)propyl)pentanamide] | almost total disappearance of the free scavenger | 110% | 102% | 91% | 94% | higher than those of the 2nd generation Dap-Pip derivative, and even those of vitamin E | increasing antioxidant effect | best antioxidant properties | 99% | 85% | 86% | 84% |  |  |  | 
NCC(N)CCCCNC(=O)CCn1cccc(O)c1=O (stereo not shown) [Compound 37b, N-(5,6-diaminohexyl)-3-(3-hydroxy-2-oxopyridin-1(2H)-yl)propanamide] | almost total disappearance of the free scavenger | 138% | 124% | 115% | 107% |  |  |  | 126% | 115% | 101% | 100% |  |  |  | 
NCC(N)CCCNC(=O)CCn1cccc(O)c1=O (stereo not shown) [Compound 37a, N-(4,5-diaminopentyl)-3-(3-hydroxy-2-oxopyridin-1(2H)-yl)propanamide] | almost total disappearance of the free scavenger | 93% | 112% | 96% | 99% | higher than those of the 2nd generation Dap-Pip derivative, and even those of vitamin E | increasing antioxidant effect | best antioxidant properties | 97% | 103% | 99% | 93% |  |  |  | 
COc1cc(/C=C/C(=O)N2CCN(C(=O)CCC(N)CN)CC2)ccc1O (stereo not shown) [Compound 29a, (E)-4,5-diamino-1-(4-(3-(4-hydroxy-3-methoxyphenyl)acryloyl)piperazin-1-yl)pentan-1-one] |  | 100% | 120% | 94% | 87% |  |  |  | 98% | 87% | 90% | 83% | majority presence of AdB | antioxidants | pro-oxidants | 
NCC(N)CCCCNC(=O)c1cc(O)c(O)c(O)c1 (stereo not shown) [Compound 30b, N-(5,6-diaminohexyl)-3,4,5-trihydroxybenzamide] |  | 110% | 82% | 95% | 67% | higher than those of the 2nd generation Dap-Pip derivative, and even those of vitamin E |  |  | 93% | 99% | 92% | 87% |  |  | highly antioxidant | highly pro-oxidant
